These molecules were tested against USP30 (Homo sapiens (Human), UniProt Q70CQ3) (assay: USP30 biochemical FP or FI IC50 assay). Conditions: read-out: IC50 range.
USP30, sequence (Q70CQ3 57-517): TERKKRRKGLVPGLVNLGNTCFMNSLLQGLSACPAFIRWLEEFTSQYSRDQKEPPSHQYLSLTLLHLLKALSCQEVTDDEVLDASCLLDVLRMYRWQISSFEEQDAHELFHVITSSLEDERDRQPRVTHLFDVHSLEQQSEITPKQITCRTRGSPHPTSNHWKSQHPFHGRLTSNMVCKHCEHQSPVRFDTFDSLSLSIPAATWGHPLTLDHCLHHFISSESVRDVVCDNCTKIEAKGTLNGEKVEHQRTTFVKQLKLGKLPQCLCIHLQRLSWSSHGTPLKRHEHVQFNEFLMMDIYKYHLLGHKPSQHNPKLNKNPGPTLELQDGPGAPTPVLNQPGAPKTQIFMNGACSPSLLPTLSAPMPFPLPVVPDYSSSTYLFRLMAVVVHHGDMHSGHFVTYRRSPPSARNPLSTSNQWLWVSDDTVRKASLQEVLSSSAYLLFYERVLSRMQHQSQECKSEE
In short: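 Human USP30 preincubated 30 min at room temperature with compound (8-point series, 100 µM top final) in Tris pH 7.5, Tween 20, BSA, 5 mM β-mercaptoethanol, in duplicate. FP format: 50 nM TAMRA-peptide–isopeptide-ubiquitin substrate, ex 540/em 590. FI format: 100 nM ubiquitin-rhodamine 110, ex 487/em 535. Both read at 0 and after 2 h at room temperature.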
Molecule CCOC(=O)N1CCN(c2ccc(C(=O)NC3CCN(C#N)C3)cn2)CC1 (racemic) [Example 20, ethyl 4-(5-((1-cyanopyrrolidin-3-yl)carbamoyl)pyridin-2-yl)piperazine-1-carboxylate] has an IC50 of 1000 to 10000 nM. Cc1nn(C)cc1-c1ccc2cc(C(=O)N[C@@H]3CCN(C#N)C3)[nH]c2c1 [Example 129, (R)-N-(1-cyanopyrrolidin-3-yl)-6-(1,3-dimethyl-1H-pyrazol-4-yl)-1H-indole-2-carboxamide] was tested, and the IC50 was < 100 nM. In the case of Cc1noc(C)c1-c1ccc2c(C(=O)N[C@@H]3CCN(C#N)C3)nn(CC(C)C)c2c1 [Example 154, (R)-N-(1-cyanopyrrolidin-3-yl)-6-(3,5-dimethylisoxazol-4-yl)-1-isobutyl-1H-indazole-3-carboxamide], the IC50 is reported as < 100 nM. For COc1cc(C(=O)N[C@@H]2CCN(C#N)C2)ccc1-c1ccnc(N2CCOCC2)c1 [Example 41, (R)-N-(1-cyanopyrrolidin-3-yl)-3-methoxy-4-(2-morpholinopyridin-4-yl)benzamide], the IC50 was 100 to 1000 nM. In the case of COc1ccc(-c2cc(C(=O)N[C@@H]3CCN(C#N)C3)on2)cc1 [Example 100, (R)-N-(1-cyanopyrrolidin-3-yl)-3-(4-methoxyphenyl)isoxazole-5-carboxamide], the IC50 is reported as < 100 nM. Work on N#CN1CC[C@@H](NC(=O)c2cc(-c3ccccn3)[nH]n2)C1 [Example 96, (R)-N-(1-cyanopyrrolidin-3-yl)-5-(pyridin-2-yl)-1H-pyrazole-3-carboxamide] yielded an IC50 of 100 to 1000 nM. In the case of Cn1cc(-c2ccc(C(=O)N[C@@H]3CCN(C#N)C3)c(F)c2)cn1 [Example 77, (R)-N-(1-cyanopyrrolidin-3-yl)-2-fluoro-4-(1-methyl-1H-pyrazol-4-yl)benzamide], the IC50 is reported as < 100 nM. With Cn1cc(-c2ccc(NC(=O)N3CC[C@@H]4CN(C#N)C[C@@H]43)c(F)c2)cn1 [Example 245, (3aR,6aR)-5-cyano-N-(2-fluoro-4-(1-methyl-1H-pyrazol-4-yl)phenyl)hexahydropyrrolo[3,4-b]pyrrole-1(2H)-carboxamide] the IC50 was 100 to 1000 nM. COc1cc(C(=O)N[C@@H]2CCN(C#N)C2)ccc1-c1ccncc1Cl [Example 39, (R)-4-(3-chloropyridin-4-yl)-N-(1-cyanopyrrolidin-3-yl)-3-methoxybenzamide] was tested, and the IC50 was < 100 nM. Molecule N#CN1CC[C@@H](NC(=O)N2CC(c3nc4ccccc4[nH]3)C2)C1 [Example 134, (R)-3-(1H-benzo[d]imidazol-2-yl)-N-(1-cyanopyrrolidin-3-yl)azetidine-1-carboxamide] has an IC50 of 100 to 1000 nM. N#CN1CC[C@@H](NC(=O)c2ccnc(N3Cc4ccccc4C3)c2)C1 [Example 73, (R)—N-(1-cyanopyrrolidin-3-yl)-2-(isoindolin-2-yl)isonicotinamide] was tested, and the IC50 was 100 to 1000 nM. N#CN1CC[C@@H](NC(=O)c2ccc3c(c2)OCCN3c2nccc(C3CC3)n2)C1 [Example 212, (R)-N-(1-cyanopyrrolidin-3-yl)-4-(4-cyclopropylpyrimidin-2-yl)-3,4-dihydro-2H-benzo[b][1, 4]oxazine-7-carboxamide] was tested, and the IC50 was < 100 nM. In the case of Cc1cc(-c2ccc(NC(=O)N3CC[C@@H]4CN(C#N)C[C@@H]43)c(F)c2)ccn1 [Example 243, (3aR,6aR)-5-cyano-N-(2-fluoro-4-(2-methylpyridin-4-yl)phenyl)hexahydropyrrolo[3,4-b]pyrrole-1(2H)-carboxamide], the IC50 is reported as 100 to 1000 nM. Work on N#CN1CC[C@@H](NC(=O)N2CC(c3ccn(-c4cnccn4)n3)C2)C1 [Example 235, (R)-N-(1-cyanopyrrolidin-3-yl)-3-(1-(pyrazin-2-yl)-1H-pyrazol-3-yl)azetidine-1-carboxamide] yielded an IC50 of 100 to 1000 nM. N#CN1CC[C@@H](NC(=O)N2CCCN(Cc3c(F)cccc3Cl)CC2)C1 [Example 137, (R)-4-(2-chloro-6-fluorobenzyl)-N-(1-cyanopyrrolidin-3-yl)-1,4-diazepane-1-carboxamide] gave an IC50 of 100 to 1000 nM. Cn1cc(-c2cnc(C(=O)N[C@@H]3CCN(C#N)C3)nc2)cn1 [Example 45, (R)-N-(1-cyanopyrrolidin-3-yl)-5-(1-methyl-1H-pyrazol-4-yl)pyrimidine-2-carboxamide] showed an IC50 of 100 to 1000 nM. With N#CN1CC[C@@H](NC(=O)N2CC(c3ccnc(-c4ccc(Cl)cc4)n3)C2)C1 [Example 237, (R)-3-(2-(4-chlorophenyl)pyrimidin-4-yl)-N-(1-cyanopyrrolidin-3-yl)azetidine-1-carboxamide] the IC50 was < 100 nM. For CC(C)C(=O)N(C)c1cccc(C(=O)N[C@@H]2CCN(C#N)C2)c1 [Example 62, (R)—N-(1-cyanopyrrolidin-3-yl)-3-(N-methylisobutyramido)benzamide], the IC50 was 100 to 1000 nM. N#CN1C[C@H](NC(=O)c2cnc(-c3ccccc3Cl)s2)[C@@H](O)C1 (relative stereo) [Example 93, 2-(2-chlorophenyl)-N-((trans)-1-cyano-4-hydroxypyrrolidin-3-yl) thiazole-5-carboxamide] was tested, and the IC50 was < 100 nM. N#CN1CCC(NC(=O)c2ccc(N3CCCC3c3cccnc3)nc2)C1 (racemic) [Example 21, N-(1-cyanopyrrolidin-3-yl)-6-(2-(pyridin-3-yl)pyrrolidin-1-yl)nicotinamide] was tested, and the IC50 was 1000 to 10000 nM. Molecule N#CN1C[C@H]2CCN(C(=O)c3cc(-c4ccccc4)n[nH]3)[C@H]2C1 (racemic) [Example 52, rac-(3aR,6aR)-1-(3-phenyl-1H-pyrazole-5-carbonyl)hexahydropyrrolo[3,4-b]pyrrole-5(1H)-carbonitrile] has an IC50 of 100 to 1000 nM. For Cc1cc(C(=O)N[C@@H]2CCN(C#N)C2)nn1Cc1ccccn1 [Example 151, (R)-N-(1-cyanopyrrolidin-3-yl)-5-methyl-1-(pyridin-2-ylmethyl)-1H-pyrazole-3-carboxamide], the IC50 was 100 to 1000 nM. Work on N#CN1CC[C@@H](N2CCCN(c3nc(-c4ccccc4)cs3)C2=O)C1 [Example 209, (R)-3-(2-oxo-3-(4-phenylthiazol-2-yl)tetrahydropyrimidin-1(2 H)-yl)pyrrolidine-1-carbonitrile] yielded an IC50 of 100 to 1000 nM. Work on N#CN1C[C@H]2CCN(C(=O)c3cc(-c4ccccc4)no3)[C@H]2C1 (racemic) [Example 53, rac-(3aR,6aR)-1-(3-phenylisoxazole-5-carbonyl)hexahydropyrrolo[3,4-b]pyrrole-5(1H)-carbonitrile] yielded an IC50 of 100 to 1000 nM. In the case of Cn1ccc2cc(-c3cnc(C(=O)N[C@@H]4CCN(C#N)C4)c(F)c3)cnc21 [Example 121, (R)-N-(1-cyanopyrrolidin-3-yl)-3-fluoro-5-(1-methyl-1H-pyrrolo[2,3-b]pyridin-5-yl)picolinamide], the IC50 is reported as < 100 nM. Work on CN(C(=O)c1nc2ccc(-c3cnn(C)c3)cc2[nH]1)[C@@H]1CCN(C#N)C1 [Example 88, (R)-N-(1-cyanopyrrolidin-3-yl)-N-methyl-6-(1-methyl-1H-pyrazol-4-yl)-1H-benzo[d]imidazole-2-carboxamide] yielded an IC50 of 100 to 1000 nM. In the case of N#CN1CC[C@@H](NC(=O)C2CCN(c3ccccc3)C2)C1 (stereo partly drawn) [Example 222, N-((R)-1-cyanopyrrolidin-3-yl)-1-phenylpyrrolidine-3-carboxamide], the IC50 is reported as 100 to 1000 nM. For C[C@@H]1CN(C#N)C[C@H]1NC(=O)c1cnc(-c2ccccc2)s1 [Example 72, N-((3S,4R)-1-cyano-4-methylpyrrolidin-3-yl)-2-phenylthiazole-5-carboxamide], the IC50 was < 100 nM. In the case of N#CN1CC[C@@H](NC(=O)c2ccc(-c3ccnc(N4CCOCC4)c3)cc2F)C1 [Example 119, (R)-N-(1-cyanopyrrolidin-3-yl)-2-fluoro-4-(2-morpholinopyridin-4-yl)benzamide], the IC50 is reported as < 100 nM.

Source: patent US10343992B2, “1-cyano-pyrrolidine compounds as USP30 inhibitors” (MISSION THERAPEUTICS LIMITED, priority 2015, dated 2019)
